Test: mn = molality of the nth substance listed, in mol/kg
Conditions: 101.3 kPa, Liquid; for speed of sound: Frequency=2 MHz, Linear variable-path acoustic interferometer; for mass density: Pycnometric method

CCN(CC)CCOC(=O)c1ccc(N)cc1.Cl [2-diethylaminoethyl p-aminobenzoate hydrochloride] + O
Conditions | mass density [kg/m3] | speed of sound [m/s]
288.15 K, m1 = 0.01 | 999.6 | 1467.5
288.15 K, m1 = 0.02 | 1000.1 | 1469.1
288.15 K, m1 = 0.0301 | 1000.6 | 1470.7
288.15 K, m1 = 0.04 | 1001.1 | 1472.3
288.15 K, m1 = 0.05 | 1001.6 | 1473.9
288.15 K, m1 = 0.055 | 1001.85 | 1474.7
288.15 K, m1 = 0.0599 | 1002.09 | 1475.4
288.15 K, m1 = 0.065 | 1002.34 | 1476.2
288.15 K, m1 = 0.0701 | 1002.6 | 1477
288.15 K, m1 = 0.0751 | 1002.85 | 1477.7
288.15 K, m1 = 0.0801 | 1003.1 | 1478.5
288.15 K, m1 = 0.0852 | 1003.35 | 1479.2
288.15 K, m1 = 0.0898 | 1003.58 | 1480
288.15 K, m1 = 0.0952 | 1003.85 | 1480.7
288.15 K, m1 = 0.1 | 1004.09 | 1481.4
298.15 K, m1 = 0.0098 | 997.52 | 1498.3
298.15 K, m1 = 0.0196 | 997.99 | 1499.9
298.15 K, m1 = 0.0297 | 998.49 | 1501.5
298.15 K, m1 = 0.0406 | 999.02 | 1503.2
298.15 K, m1 = 0.0492 | 999.44 | 1504.6
298.15 K, m1 = 0.0534 | 999.65 | 1505.3
298.15 K, m1 = 0.061 | 1000.02 | 1506.5
298.15 K, m1 = 0.0636 | 1000.15 | 1506.9
298.15 K, m1 = 0.0688 | 1000.4 | 1507.7
298.15 K, m1 = 0.0758 | 1000.74 | 1508.8
298.15 K, m1 = 0.0783 | 1000.86 | 1509.2
298.15 K, m1 = 0.0846 | 1001.17 | 1510.2
298.15 K, m1 = 0.09 | 1001.44 | 1511
298.15 K, m1 = 0.0951 | 1001.68 | 1511.7
298.15 K, m1 = 0.1003 | 1001.94 | 1512.5
308.15 K, m1 = 0.01 | 994.51 | 1521.4
308.15 K, m1 = 0.02 | 995 | 1523
308.15 K, m1 = 0.03 | 995.48 | 1524.6
308.15 K, m1 = 0.0401 | 995.97 | 1526.2
308.15 K, m1 = 0.0499 | 996.44 | 1527.8
308.15 K, m1 = 0.055 | 996.69 | 1528.6
308.15 K, m1 = 0.06 | 996.93 | 1529.4
308.15 K, m1 = 0.065 | 997.17 | 1530.1
308.15 K, m1 = 0.0698 | 997.4 | 1530.9
308.15 K, m1 = 0.075 | 997.65 | 1531.7
308.15 K, m1 = 0.0801 | 997.9 | 1532.5
308.15 K, m1 = 0.085 | 998.14 | 1533.2
308.15 K, m1 = 0.09 | 998.38 | 1534
308.15 K, m1 = 0.095 | 998.62 | 1534.7
308.15 K, m1 = 0.1 | 998.86 | 1535.4

[Cl-].[K+] [potassium chloride] + O
Conditions | mass density, 288.15 K [kg/m3] | mass density, 298.15 K [kg/m3] | mass density, 308.15 K [kg/m3] | speed of sound, 288.15 K [m/s] | speed of sound, 298.15 K [m/s] | speed of sound, 308.15 K [m/s]
m1 = 0.06 | 1002.26 | 1000.42 | 997.25 | 1467.4 | 1498.3 | 1522.2
m1 = 0.1 | 1003.48 | 1001.79 | 998.71 | 1469.6 | 1502.5 | 1525.1

From the NIST ThermoML archive (doi:10.1016/j.jct.2017.04.015)
